Some test systems named below: LOX IMVI melanoma; UO-31 renal; NCI-H522 lung; HL-60(TB) leukemia; MALME-3M melanoma; HOP-92 NSCLC; SK-MEL-28 melanoma; SN12C renal; A549 NSCLC; SF-539 CNS; HCT-15 colon; CCRF-CEM leukemia.
What all share (assay): NCI anticancer screen, dose series, 48 h

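Protocol summary: plate cells (96-well), add compound at 5 concentrations, incubate 48 h, interpolate endpoints linearly. TGI: concentration producing complete growth inhibition.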 Where a SMILES comes first, the peptide text is derived from it. The star is where a group is joined. Boc = CC(C)(C)OC(=O)*; nBu = CCCC* Bounds are passed on as bounds.

For the compound `CCOc1nc2c(N3CCCC3)nc(N3CCNCC3)nc2nc1NCc1ccccc1`, the TGI in the experiment on LOX IMVI melanoma was 2.97 µM; in the experiment with UO-31 renal, 2.6 µM; with NCI-H522 lung it was 2.2 µM; in the experiment on HL-60(TB) leukemia it was 2.99 µM; in the experiment with MALME-3M melanoma, 3.3 µM; in the experiment on HOP-92 NSCLC it was 2.5 µM. Moreover, the TGI was determined as 3.37 µM in the experiment on SK-MEL-28 melanoma; 2.96 µM in the experiment on SN12C renal; 4.26 µM with A549 NSCLC; 2.85 µM in the experiment with SF-539 CNS; 3.45 µM in the experiment with HCT-15 colon; 3.49 µM with CCRF-CEM leukemia.
Regarding `Cc1c(-c2ccccc2)[nH]c2cn[nH]c(=O)c12`, the TGI in the experiment on LOX IMVI melanoma, with UO-31 renal, in the experiment on NCI-H522 lung, in the experiment on HL-60(TB) leukemia, in the experiment on MALME-3M melanoma and in the experiment on HOP-92 NSCLC was > 100 µM each time. Also, the TGI with SK-MEL-28 melanoma, in the experiment with A549 NSCLC, in the experiment on SF-539 CNS, in the experiment with HCT-15 colon and in the experiment on CCRF-CEM leukemia was > 100 µM in each case.
On to `C#C[C@]1(O)CC[C@H]2[C@@H]3CCc4cc(O)ccc4[C@H]3CC[C@@]21C`, for which the TGI in the experiment with LOX IMVI melanoma is > 100 µM; with NCI-H522 lung, 43.5 µM; with HL-60(TB) leukemia, 94 µM; in the experiment on MALME-3M melanoma, > 100 µM; in the experiment on HOP-92 NSCLC, 95 µM; in the experiment with SK-MEL-28 melanoma, > 100 µM. Moreover, the TGI in the experiment with SN12C renal is > 100 µM; with A549 NSCLC it was > 100 µM; in the experiment on SF-539 CNS, 40.4 µM; in the experiment with HCT-15 colon, > 100 µM; in the experiment on CCRF-CEM leukemia it was > 100 µM.
Regarding `C/C(C=O)=C/[C@@]1(C)O[C@@H](C)[C@@](C)(O)[C@@H]1O`, the TGI in the experiment with LOX IMVI melanoma is > 100 µM; in the experiment on UO-31 renal, 4.71 µM; in the experiment with NCI-H522 lung it was 35.5 µM; in the experiment with HL-60(TB) leukemia, > 100 µM; with MALME-3M melanoma, > 100 µM; with HOP-92 NSCLC it was > 100 µM. Moreover, the TGI was > 100 µM in the experiment with SK-MEL-28 melanoma; > 100 µM in the experiment on SN12C renal; > 100 µM in the experiment with A549 NSCLC; > 100 µM in the experiment on SF-539 CNS; 51.5 µM with HCT-15 colon; > 100 µM in the experiment on CCRF-CEM leukemia.
Consider `CC(=O)Nc1cccc(N2C(=O)/C(=C\c3cccc(Oc4ccccc4)c3)SC2c2ccccc2)c1` (centres undefined), for which the TGI in the experiment on LOX IMVI melanoma, in the experiment with UO-31 renal, in the experiment with NCI-H522 lung, in the experiment on HL-60(TB) leukemia, in the experiment with MALME-3M melanoma and with HOP-92 NSCLC was > 100 µM throughout. Moreover, the TGI is > 100 µM in the experiment with SK-MEL-28 melanoma; > 100 µM in the experiment on SN12C renal; > 100 µM in the experiment with A549 NSCLC; > 100 µM in the experiment with SF-539 CNS; > 100 µM in the experiment on HCT-15 colon; 51.6 µM with CCRF-CEM leukemia.
Turning to `CC(C)CC(N)C(=O)NC(C(=O)NC(CCCNC(=N)N)C(=O)NC(CS)C(=O)NC1CSCC(C(=O)NC(Cc2ccccc2)C(=O)NC(C(=O)NC(CCCNC(=N)N)C(=O)O)C(C)C)NC(=O)C2CCCN2C(=O)C(CCCCN)NC(=O)C2CCCN2C(=O)C2CCCN2C(=O)C(Cc2ccc(O)cc2)NC(=O)C(CO)NC(=O)C(CCCCN)NC(=O)C(C(C)O)NC(=O)C(Cc2c[nH]c3ccccc23)NC1=O)C(C)C` (centres undefined), the TGI in the experiment with LOX IMVI melanoma, in the experiment with UO-31 renal, with NCI-H522 lung, in the experiment with HL-60(TB) leukemia, with MALME-3M melanoma and in the experiment on HOP-92 NSCLC was > 25 µM in each case. Also, the TGI in the experiment with SK-MEL-28 melanoma, in the experiment with SN12C renal, with A549 NSCLC, in the experiment with SF-539 CNS, in the experiment on HCT-15 colon and in the experiment with CCRF-CEM leukemia was > 25 µM in each case.
Take `CCCCOc1ccc(CC(NC(=O)OC(C)(C)C)C(=O)NC(C)C(=O)NC(Cc2ccccc2)C(=O)NCC(N)=O)cc1` (centres undefined) (Boc-Y(nBu)AFG-NH2; configuration not given here): the TGI in the experiment on LOX IMVI melanoma, in the experiment with UO-31 renal, in the experiment with NCI-H522 lung, in the experiment with HL-60(TB) leukemia, in the experiment with MALME-3M melanoma and in the experiment on HOP-92 NSCLC was > 100 µM each time. Besides, the TGI in the experiment with SK-MEL-28 melanoma, with SN12C renal, in the experiment with A549 NSCLC, in the experiment on SF-539 CNS, in the experiment with HCT-15 colon and in the experiment with CCRF-CEM leukemia was > 100 µM in each case.
For the compound `CN1CCC(C(O)(c2ccccc2)c2ccc(Br)cc2)CC1` (centres undefined), the TGI in the experiment with LOX IMVI melanoma stood at 32.9 µM; in the experiment with UO-31 renal, 33.1 µM; in the experiment on NCI-H522 lung it was 30.4 µM; in the experiment on HL-60(TB) leukemia, 66.5 µM; in the experiment with MALME-3M melanoma it was 27.6 µM; in the experiment on HOP-92 NSCLC it was 70.4 µM. Moreover, the TGI in the experiment with SK-MEL-28 melanoma was 35.1 µM; with SN12C renal, 44.3 µM; in the experiment with A549 NSCLC, > 100 µM; in the experiment on SF-539 CNS, 32.2 µM; in the experiment with HCT-15 colon it was > 100 µM; in the experiment on CCRF-CEM leukemia, > 100 µM.
With `COC(=O)/C=C\C(C#N)(C#N)N=Cc1ccc(OC)cc1`, the TGI with LOX IMVI melanoma came out at 11.4 µM; in the experiment on UO-31 renal, 5.96 µM; in the experiment with NCI-H522 lung, 2.26 µM; with HL-60(TB) leukemia, 5.62 µM; in the experiment on MALME-3M melanoma, 4.01 µM; in the experiment with HOP-92 NSCLC, 4.61 µM. In addition, the TGI with SK-MEL-28 melanoma was determined as 12.8 µM; in the experiment with SN12C renal it was 30.9 µM; in the experiment with A549 NSCLC it was 38.3 µM; with SF-539 CNS it was 11.2 µM; in the experiment with HCT-15 colon it was 13.2 µM; with CCRF-CEM leukemia, 2.53 µM.
For the compound `C=C1C(O)C2(O)OCC34C(CC5C(C)=CC(=O)C(O)C5(C)C23)OC(=O)C(OC(=O)C/C=C/CCCCCCCC)C14` (centres undefined), the TGI with LOX IMVI melanoma was found to be 2 µM; with UO-31 renal it was 0.231 µM; with NCI-H522 lung, 0.0202 µM; in the experiment on HL-60(TB) leukemia, 0.2 µM; with MALME-3M melanoma it was 0.0229 µM; with HOP-92 NSCLC it was 0.0229 µM. The TGI with SK-MEL-28 melanoma stood at 0.0311 µM; in the experiment with SN12C renal it was 0.193 µM; with A549 NSCLC, 0.0918 µM; in the experiment on SF-539 CNS it was 0.0372 µM; in the experiment on HCT-15 colon, 0.0979 µM; in the experiment on CCRF-CEM leukemia, 0.166 µM.
As to `O=C(Cc1nc2ccccc2[nH]c1=O)c1c[nH]c2ccccc12`, the TGI with LOX IMVI melanoma is > 100 µM; in the experiment on UO-31 renal, 33.7 µM; in the experiment on NCI-H522 lung, 50 µM; in the experiment on HL-60(TB) leukemia it was > 100 µM; in the experiment with MALME-3M melanoma it was > 100 µM; in the experiment on HOP-92 NSCLC, > 100 µM. The TGI in the experiment with SN12C renal was 54.3 µM; in the experiment on A549 NSCLC, > 100 µM; with SF-539 CNS it was 35.2 µM; in the experiment with HCT-15 colon, > 100 µM; with CCRF-CEM leukemia it was > 100 µM.

Source of the values: PubChem BioAssay (NCI).
